Results: patent US12433863B2, “Pharmaceutical compositions and uses directed to lysosomal storage disorders” (INTRABIO LIMITED, priority 2016, dated 2025)
“And” between values parts separate entries of the source, which are not always exact repeats. Equal values may be shown once.

Columns and labels:
[1] = test system: patients genetically diagnosed with Tay-Sachs disease; experiment: Case studies of Tay-Sachs disease patients (SARA, SCAFI, MoCA, mRDS, EQ-5D-5L); type: in vivo, human
Text: For example, to evaluate overall neurological status, mDRS, a four-domain scale (ambulation, manipulation, language and swallowing), may be applied. Cerebellar function may be evaluated using SARA, an eight-item clinical rating scale (gait, stance, sitting, speech, fine motor function and taxis; range 0-40, where 0 is the best neurological status and 40 the worst), and SCAFI, comprising the 8-m-Walking-Time (8MW; performed by having patients walking twice as quickly as possible from one line to another excluding turning), 9-Hole-Peg-Test (9HPT) and the number of “PATA” repetitions over 10 s. Subjective impairment and quality of life may be evaluated using the EQ-5D-5L questionnaire and VAS. To assess ocular motor function, 3-dimensional videooculography (EyeSeeCam) may be used to measure the peak velocity of saccades, gain of smooth pursuit, peak slow phase velocity of gaze-evoked nystagmus (gaze-holding function), peak slow phase velocity of optokinetic nystagmus, and gain of horizontal vestibulo-ocular reflex. To evaluate the cognitive state, WAIS-R or WISC-IV, and MoCA, assessing different cognitive domains, including attention and concentration, executive functions, memory, language, visuoconstructional skills, conceptual thinking, calculations, and orientation with a maximum of 30 points and a cut-off score of 26, may be used. The skilled person will know how to perform these and other such tests.
In particular, the patient was not able to stand or walk, could do single steps with strong support, had distinct postural instability, ocular movement disorder, dysphagia and dysarthria, and mild cognitive function disorder.
(§1) Before treatment was commenced, examination of the patient indicated a Scale for Assessment and Rating of Ataxia (SARA) score of 15.5/40. In addition, results from the patient's Spinocerebellar Ataxia Functional Index (SCAFI) analysis were: • Mean 8-meters Walking Test (8MW): 21.6 s • MW 9-Hole Pegboard Test Dominant (9HPTD) (right): 48.3 s • MW 9-Hole Pegboard Test Non-Dominant (9HPTND): 44.9 s • MW PATA Word Test: 20 • Montreal Cognitive Assessment (MoCA): 18/30
The day following this examination, the patient was started on therapy with acetyl-leucine, at a dose of 3 g per day for the first week, followed by a dose of 5 g per day for the second week onwards.
In particular, walking was not possible without support, and the patient suffered from dysphagia and speech disorder, ocular movement disorder, and mild cognitive function disorder.
as §1, with “10.5/40.” for “15.5/40.”, “12.5” for “21.6”, “21.5” for “48.3”, “35.5” for “44.9”, “18” for “20”, “21/30” for “18/30”
The day of the examination, the patient was started on therapy with acetyl-leucine at a dose of 3 g per day for the first week, followed by a dose of 5 g per day for the second week onwards.
The patient in this case study was a person who was genetically diagnosed with Tay-Sachs disease and who had epileptic cramps (tonic-clonic, about 10 seconds, self-limiting) almost every day before falling asleep, ocular movement disorder, anarthria, distinct problems in cognitive function and concentration (neurological examination was not possible), was not able to stand or walk by themself, and was very limited in daily activities (eating, washing or dressing themself was not possible).
Before treatment was commenced, examination of the patient indicated a Scale for Assessment and Rating of Ataxia (SARA) score of 36/40, a mRDS score of 18/24, a EQ-5D-5L visual scale of 50, and a 8MWT of 18.1 (only with strong support). […]

NPC patients = experiment: Clinical severity score (CSS) and annual severity increment score (ASIS) in ten NPC patients; type: in vivo, human; details: 4.5 g/day
Text: An NPC patient's severity may be quantified by assigning a clinical severity score (CSS), which assesses various parameters of the disease and gives each parameter a score out of 5 (higher score =greater severity). See Yanjanin et al., “Linear Clinical Progression, Independent of Age of Onset, in Niemann-Pick Disease, Type C,” Am J Med Genet Part B 153B:132-140. In an untreated patient, one can typically predict how the CSS will change over time in an individual, as disease progression appears to be linear. For example, if Patient A moves from a CSS of 8 to a CSS of 12 between month 0 and month 12, it can be predicted that by month 36, the patient will have a CSS of 20. The annual severity increment score (ASIS) quantities the annual rate of change in the CSS, calculated by dividing the CSS of a patient by the patient's age. […] Each year, the patient would be expected to progress by 4 CSS points, such that at 4 years of age, the patient's CSS would be 16. If therapeutic intervention slowed or arrested disease progression, one would expect the patient to have a smaller ASIS score after such therapy than at baseline.
Ten NPC patients were administered acetyl-leucine at 4.5 g/day over long durations. A CSS was determined at baseline, and at various time points, for eye movement, ambulation, speech, swallow, fine motor skills, cognition, memory, and seizures. An overall CSS was calculated at baseline and at each such time point by adding the individual CSS values for each parameter (eye movement, ambulation, etc.).
The ASIS at baseline and each time point was calculated using each patient's CSS and age at the time of assessment. The overall ASIS for each patient at each time point is shown below in Table 15.

[2] = one line per patient, days per Table 5, listed as acetyl-leucine
[3] = one line per patient, score out of 5, listed as acetyl-leucine

In the case of `CC(=O)NC(CC(C)C)C(=O)O` (racemic) [acetyl-DL-leucine], the “Overall change in symptoms” value ([1]; Patient 1) is reported as “improvement in symptoms”, the SARA ([1]; Patient 1, 3 g then 5 g per day, after 4 months) is reported as 17/40 and the MoCA ([1]; Patient 1, after 4 months) is reported as 22/30. The Clinical re-examination findings ([1]; Patient 1, after four months) was “stable condition with slightly improved cognitive function but had deterioration of stance, gait and fine motor function”, the Clinical re-examination findings ([1]; Patient 1, after one month) was “improved fine motor skills and reduced hand tremor” and the MoCA ([1]; Patient 1, after one month) was 21/30. The SARA ([1]; Patient 2, 3 g then 5 g per day, after one month) was 5/40, the Clinical re-examination findings ([1]; Patient 2, after one month) was “increased enunciation, improved postural stability, and enhanced cognitive function” and the MoCA ([1]; Patient 2, after one month) was 25/30. The SARA ([1]; Patient 3, 1.5 g then 3 g per day, after one month) was 33/40, the “CSS overall, Time Point 2” value (NPC patients; one line per patient (Patient I.D 1-10), days per Table 5, listed as acetyl-leucine) was 33 and 12 (3×) and 13 and 23 and 19 and 22 and 11 (2×) and the “CSS overall, Time Point 3” value (NPC patients; [2]) was 33 and 11 (2×) and 10 (2×) and 12 and 21 (2×) and 19. The “CSS overall, Time Point 4” value (NPC patients; [2]) was 33 and 12 and 21, the “CSS eye movement, Time Point 4” value (NPC patients; one line per patient, score out of 5) was 3 and the “CSS ambulation, Time Point 2” value (NPC patients; [3]) was 5 and 1 (3×) and 2 (5×) and 4. The “CSS ambulation, Time Point 4” value (NPC patients; [3]) was 5 and 1 and 2, the “CSS cognition, Time Point 2” value (NPC patients; [3]) was 5 and 3 (5×) and 4 (3×) and 2 and the “CSS cognition, Time Point 3” value (NPC patients; [3]) was 5 and 3 (5×) and 4 (3×). For the same compound, the “CSS cognition, Time Point 4” value (NPC patients; [3]) was 5 and 3 and 4, the “CSS eye movement, Time Point 2” value (NPC patients; [3]) was 3 (9×) and 2 and the “CSS eye movement, Time Point 3” value (NPC patients; [3]) was 3 (7×) and 2 (2×). The “CSS fine motor skills, Time Point 2” value (NPC patients; [3]) was 5 and 1 (6×) and 4 (2×) and 2, the “CSS fine motor skills, Time Point 3” value (NPC patients; [3]) was 5 and 1 (5×) and 4 (2×) and 2 and the “CSS fine motor skills, Time Point 4” value (NPC patients; [3]) was 5 and 1 and 4. The “CSS memory, Time Point 2” value (NPC patients; [3]) was 4 (3×) and 1 (5×) and 3 and 0, the “CSS memory, Time Point 3” value (NPC patients; [3]) was 4 (2×) and 0 (2×) and 1 (3×) and 3 (2×) and the “CSS memory, Time Point 4” value (NPC patients; [3]) was 4 and 1 and 3. For the same compound, the “CSS seizures, Time Point 2” value (NPC patients; [3]) was 5 and 0 (9×), the “CSS seizures, Time Point 3” value (NPC patients; [3]) was 5 and 0 (8×) and the “CSS seizures, Time Point 4” value (NPC patients; [3]) was 5 and 0 (2×). The “CSS speech, Time Point 2” value (NPC patients; [3]) was 2 (4×) and 1 (6×), the “CSS speech, Time Point 3” value (NPC patients; [3]) was 2 (3×) and 1 (6×) and the “CSS speech, Time Point 4” value (NPC patients; [3]) was 2 (2×) and 1. For the same compound, the “CSS swallow, Time Point 2” value (NPC patients; [3]) was 4 and 2 (5×) and 3 (3×) and 0, the “CSS swallow, Time Point 3” value (NPC patients; [3]) was 4 and 2 (4×) and 3 (3×) and 0 and the “CSS swallow, Time Point 4” value (NPC patients; [3]) was 4 and 2 and 3. For the same compound, the “Change in overall CSS over the course of the experiment” value (NPC patients; ten NPC patients) was “none of the ten patients showed an overall increase in CSS”.
